Source: patent US20240148740A1, “COMBINATION OF AN AHR INHIBITOR WITH A PDX INHIBITOR OR DOXORUBICINE” (Ikena Oncology, Inc., priority 2020, published 2024)
“Also recorded” adds a separate entry of the source. Like-named read-outs stand apart in the source and are kept apart here.

Experiments:
[1] = Phase 1 study, safety of single agent dose escalation; assay type: in vivo; details: 200 mg, 400 mg, 800 mg, and 1200 mg QD, monotherapy, human patients
Excerpt: This is a first-in-human (FIH), open-label, multicenter, dose-escalation and expansion study to evaluate the safety, tolerability, PK, pharmacodynamics, and preliminary antitumor activity of Compound A administered orally (PO). There will be two arms: a single agent Compound A arm and a combination arm of Compound A with nivolumab in patients with advanced solid tumors and urothelial carcinoma. The Safety Review Committee (SRC) comprised of the enrolling study Investigators and the Sponsor will use the mTPI-2 design (Guo, 2017) and assess all safety data available to guide dose escalation and de-escalation decisions and subject enrollment for both arms. To assess evidence of preliminary antitumor activity in patients with urothelial carcinoma, a Simon 2-stage design (Simon, 1989) is used for both arms.
A baseline Screening period is followed by a by a Single-dose Run-in period (up to 7 days) to assess the PK of Compound A without food. The Single Agent treatment arm comprises daily oral administration of Compound A in the fed state. […]
Toxicity is evaluated according to National Cancer Institute Common Terminology Criteria for Adverse Events (AEs) (NCI-CTCAE) v5.0. […]

[2] = molecular target: AHR (Macaca fascicularis, UniProt A0A7N9CQA9); assay: AHR-dependent gene expression in cynomolgus PBMCs (Quantigene Plex); assay type: cell-based, cynomolgus macaque; details: cynomolgus PBMCs ex vivo
Procedure: The effect of Compound A on AHR-dependent gene expression was assessed in peripheral blood mononuclear cells (PBMCs) of cynomolgus macaque monkeys to assess activity in the non-rodent tox species. Cynomolgus PBMCs were treated ex vivo with Compound A and gene expression of AHR-dependent genes CYP1B1 and AHR was quantified using Quantigene Plex (QGP) custom panels.

[3] = molecular target: T1, AHR (Homo sapiens, UniProt P35869); assay: Phase 1 study, pharmacodynamic whole blood assay of AHR target genes; assay type: in vivo; details: all subjects in the 200 mg, 400 mg, and 800 mg cohorts
T1 sequence (P35869 11-848): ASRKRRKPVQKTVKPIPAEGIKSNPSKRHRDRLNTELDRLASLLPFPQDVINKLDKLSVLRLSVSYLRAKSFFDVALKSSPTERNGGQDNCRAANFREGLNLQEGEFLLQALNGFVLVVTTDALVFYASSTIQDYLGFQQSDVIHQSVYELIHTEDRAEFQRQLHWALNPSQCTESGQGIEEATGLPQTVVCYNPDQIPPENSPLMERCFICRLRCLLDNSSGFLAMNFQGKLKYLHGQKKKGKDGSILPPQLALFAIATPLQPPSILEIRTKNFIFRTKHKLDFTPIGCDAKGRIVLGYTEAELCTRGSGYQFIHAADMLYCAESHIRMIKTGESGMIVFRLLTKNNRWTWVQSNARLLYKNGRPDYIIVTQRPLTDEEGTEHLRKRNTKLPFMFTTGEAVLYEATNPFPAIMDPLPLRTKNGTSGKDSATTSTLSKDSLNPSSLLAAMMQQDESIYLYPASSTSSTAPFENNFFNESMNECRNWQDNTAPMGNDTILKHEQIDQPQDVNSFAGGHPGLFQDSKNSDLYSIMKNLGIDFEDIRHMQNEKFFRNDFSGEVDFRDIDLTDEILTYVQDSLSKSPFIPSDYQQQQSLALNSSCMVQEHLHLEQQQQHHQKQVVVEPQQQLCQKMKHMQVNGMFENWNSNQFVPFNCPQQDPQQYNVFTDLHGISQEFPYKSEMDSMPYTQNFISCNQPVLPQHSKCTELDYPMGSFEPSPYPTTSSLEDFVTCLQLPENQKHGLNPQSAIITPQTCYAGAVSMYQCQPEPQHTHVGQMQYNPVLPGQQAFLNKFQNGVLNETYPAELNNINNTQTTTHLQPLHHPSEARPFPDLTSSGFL
Excerpt: Because the starting dose and any higher dose of Compound A is expected to be near or at the pharmacologically active range, each subject is required to have blood drawn and tumor biopsies for secondary and exploratory pharmacodynamic endpoints. The blood and tumor tissue samples are used to confirm AHR target engagement. Individual subjects can be exempted from the tumor biopsy requirement upon discussion and prior agreement by the Sponsor. The initial sampling strategy is based on the predicted human pharmacodynamics of Compound A. If in the course of evaluating the pharmacodynamics, it is determined that an alternative sampling scheme would be more informative, then that alternative sampling scheme can be implemented if the total amount of blood, blood draws, and tumor biopsies obtained for pharmacodynamics is not increased. Moreover, the total number of samples can be decreased at any time if the initial sampling scheme is considered unnecessarily intensive.

[4] = molecular target: T1, AHR; assay: CYP1B1 gene expression in human whole blood exposed ex vivo; assay type: cell-based; parameters: endogenous in cells; details: Compound A concentrations >0.5 μM; both donors; basal and ligand activated (L-kynurenine) conditions; 24 hours
Procedure: To further examine the effects of Compound A on basal and ligand-activated AHR-dependent gene expression in human immune cells, blood samples from 2 healthy human donors were exposed ex vivo to Compound A in the presence or absence of […] L-kynurenine to activate AHR. After 24 hours, cells were evaluated for CYP1B1 gene expression. […] In both donors, Compound A concentrations >0.5 μM inhibited CYP1B1 gene expression by greater than 50% under basal and ligand activated conditions.

[5] = Nonclinical safety studies in rat (incl. 28-day GLP); assay type: in vivo

Chain of AHR (Macaca fascicularis, UniProt A0A7N9CQA9) (A0A7N9CQA9 entry or part of it): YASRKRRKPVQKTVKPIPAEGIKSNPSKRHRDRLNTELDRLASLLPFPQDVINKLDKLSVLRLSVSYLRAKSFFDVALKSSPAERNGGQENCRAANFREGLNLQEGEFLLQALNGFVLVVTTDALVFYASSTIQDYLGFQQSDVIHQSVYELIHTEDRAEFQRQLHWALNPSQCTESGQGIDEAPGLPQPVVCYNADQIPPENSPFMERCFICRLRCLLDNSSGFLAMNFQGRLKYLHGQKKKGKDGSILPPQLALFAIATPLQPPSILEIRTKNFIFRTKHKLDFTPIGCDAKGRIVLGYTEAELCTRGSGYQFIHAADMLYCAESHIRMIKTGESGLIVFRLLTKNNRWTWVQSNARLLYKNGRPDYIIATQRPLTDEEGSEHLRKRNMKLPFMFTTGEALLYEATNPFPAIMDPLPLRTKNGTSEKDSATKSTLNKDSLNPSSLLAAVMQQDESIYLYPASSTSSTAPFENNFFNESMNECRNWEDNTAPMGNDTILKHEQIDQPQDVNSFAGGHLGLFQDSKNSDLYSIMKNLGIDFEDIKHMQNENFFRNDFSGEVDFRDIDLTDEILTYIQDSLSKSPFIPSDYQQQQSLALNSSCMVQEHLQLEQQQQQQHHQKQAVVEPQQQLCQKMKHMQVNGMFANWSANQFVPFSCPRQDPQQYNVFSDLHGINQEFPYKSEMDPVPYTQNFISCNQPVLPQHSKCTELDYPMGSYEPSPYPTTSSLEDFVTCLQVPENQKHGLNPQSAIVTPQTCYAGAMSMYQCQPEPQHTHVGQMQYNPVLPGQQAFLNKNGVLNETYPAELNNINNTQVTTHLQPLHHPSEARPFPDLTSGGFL

IC50 ([2]; read-out: IC50, inhibition of AHR target gene AHR): 30 nM
IC50 ([2]; read-out: IC50, inhibition of AHR target gene Cyp1B1): 6 nM
inhibition of expression of AHR target gene CYP1B1 [3]: Robust inhibition
inhibition of CYP1B1 gene expression [4]: greater than 50%
Structure (SMILES): CC(C)c1cnn2c(N[C@@H]3CCc4[nH]c5ccccc5c4C3)nc(-c3cncc(F)c3)nc12 [Compound A, (R)—N-(2-(5-fluoropyridin-3-yl)-8-isopropylpyrazolo[1,5-a][1,3,5]triazin-4-yl)-2,3,4,9-tetrahydro-1H-carbazol-3-amine]
serious adverse events (SAEs) [1]: no serious adverse events; also recorded: without any drug-related serious adverse events
noteworthy findings (rats) [5]: non-glandular stomach ulceration and edema; also recorded: seminiferous tubule degeneration and debris in the epididymis lumen
